In data set [1] the test system is human airway epithelial cells (HAECs). The data set is described as follows: High-throughput sequencing (HTS) of miRNAs at four stages of differentiation of HAECs. Particulars: for Modulation (ratio of the level of intensity of expression in log2 in two stages of differentiation) measured by high-throughput sequencing, D7 − D0 / Modulation (ratio of the level of intensity of expression in log2 in two stages of differentiation) measured by high-throughput sequencing, FC − D7 / Modulation (ratio of the level of intensity of expression in log2 in two stages of differentiation) measured by high-throughput sequencing, WD − D0 / Modulation (ratio of the level of intensity of expression in log2 in two stages of differentiation) measured by high-throughput sequencing, WD − FC / Level of intensity of expression in log2 measured by high-throughput sequencing, D0 / Level of intensity of expression in log2 measured by high-throughput sequencing, D7 / Level of intensity of expression in log2 measured by high-throughput sequencing, FC / Level of intensity of expression in log2 measured by high-throughput sequencing, WD: Table VI; for Level of intensity of expression in log2 At the differentiated stage (WD) measured in HTS: healthy human airway epithelial tissue; for Level of intensity of expression in log2 measured by high-throughput sequencing, D0: stage D0; for Level of intensity of expression in log2 measured by high-throughput sequencing, D7: stage D7; for Level of intensity of expression in log2 measured by high-throughput sequencing, FC: stage FC; for Level of intensity of expression in log2 At the differentiated stage (WD) measured in HTS / Level of intensity of expression in log2 measured by high-throughput sequencing, WD: stage WD. The text has this:
The total RNAs were extracted from HAECs cultivated at the air-liquid interface at four stages of differentiation: ALI-D0 (0 day), ALI-D7 (7 days), ALI-FC (during appearance of the first cilia at about 14 days) and ALI-WD (wholly differentiated at about 21 days). The cells are lysed in reagent with Trizol® (Invitrogen). The total RNAs containing small RNAs and microRNAs are purified on Qiagen RNEasy columns (Qiagen) according to the supplier's instructions.
The total RNAs containing small RNAs and microRNAs are isolated as before. The procedure is based on the Applied Biosystems Ligase-Enhanced Genome Detection technology (LEGenD™); the SOLiD™ Small RNA Expression kit (Applied Biosystems, France) was used. With this method it is possible to convert the small RNAs of a sample into a library of double-stranded DNA; it was developed by Applied Biosystems SOLiD™ System for a new generation of high-throughput sequencing.
The high-throughput sequencing of the microRNAs was carried out according to the supplier's recommendations. Briefly, the total RNAs containing the small RNAs are hybridized (65° C., 10 min, then at 16° C., 5 min) and ligated (16° C., 2-16 h in a thermocycler) with the Adaptor Mix A for producing a matrix for sequencing the 5′ end of the small RNAs, or with the Adaptor Mix B for sequencing the 3′ end. The samples are then reverse-transcribed (42° C., 30 min) to synthesize the complementary DNA (cDNA). The library of small RNAs is amplified by PCR and after migration on polyacrylamide gel the amplified small RNAs are cut out and extracted from the gel according to their size (length of about 105-150 bases, according to the supplier's instructions), eluted and resuspended in nuclease-free water. The concentration of nucleic acids is then measured and normalized before proceeding with preparation of the samples for sequencing.
For each microRNA sequenced, the number of sequences of the 5p strand and of the 3p strand of the microRNA was normalized to 10^6 sequences and converted to percentage abundance of expression for each of the microRNAs. The data were then normalized according to a linear model and an empirical Bayesian method using software R. For subsequent analyses, only the microRNAs were retained for which the percentage expression (or abundance) is greater than 1% of the total of the microRNAs in at least one culture condition, with a |Log2 Ratio| below 0.5 and an adjusted P-value below 0.05.

Data set [2] shares this test system. The data set can be described thus: Agilent miRNA chips, miRNA expression at four stages of differentiation of HAECs. To be noted: for Modulation (ratio of the level of intensity of expression in log2 in two stages of differentiation) measured with the Agilent chips, D7 − D0 / Modulation (ratio of the level of intensity of expression in log2 in two stages of differentiation) measured with the Agilent chips, FC − D7 / Modulation (ratio of the level of intensity of expression in log2 in two stages of differentiation) measured with the Agilent chips, WD − D0 / Modulation (ratio of the level of intensity of expression in log2 in two stages of differentiation) measured with the Agilent chips, WD − FC / Level of intensity of expression in log2 measured with the Agilent chips, D0 / Level of intensity of expression in log2 measured with the Agilent chips, D7 / Level of intensity of expression in log2 measured with the Agilent chips, FC / Level of intensity of expression in log2 measured with the Agilent chips, WD: Table VI; for Modulation (ratio of the level of intensity of expression in log2 at two stages of differentiation), FC − D7 / Modulation (ratio of the level of intensity of expression in log2 at two stages of differentiation), WD − FC: Agilent miRNA chips, Table V; for Level of intensity of expression in log2 measured with the Agilent chips, D0: stage D0; for Level of intensity of expression in log2 measured with the Agilent chips, D7: stage D7; for Level of intensity of expression in log2 measured with the Agilent chips, FC: stage FC; for Level of intensity of expression in log2 measured with the Agilent chips, WD: stage WD. The text has this: In parallel with the high-throughput sequencing of the microRNAs, the repertoire of expression of the microRNAs (microRNAome) is investigated using the technology of Agilent® microRNA chips. For this, RNA samples from the same patients as before were used, labeled and hybridized on Agilent® miRNA chips (Human miRNA Microarray v2, containing 866 human miRNAs and 89 human viral miRNAs, i.e. all the human miRNAs contained and referenced in Sanger miRBase v.12.0, Agilent Technologies, France) using the “miRNA labeling and hybridization” kit, following the supplier's instructions (Agilent Technologies).
The inventors then used the Agilent miRNA chips to investigate the repertoire of expression of the miRNAs of the human airway epithelium and compare the results obtained in high-throughput sequencing with those obtained with Agilent® commercial miRNA chips.

Data set [3] deals with basal cells and pyramidal cells of the airway epithelium. The data set can be described thus: miRNA expression in sorted basal cells versus pyramidal cells (ciliated + secretory), HTS and Agilent chips. The arrangement: species or system human. Particulars: for Modulation of expression of the miRNAs in pyramidal cells (323(−)) relative to basal cells 323(+): HTS and Agilent chips; for Intensity of the level of expression in log2 in pyramidal cells (323(−)): pyramidal cells (ciliated + secretory). The procedure:
After dissociation of the stroma of nasal polyps, the epithelial cells (about 20.10^6) are incubated in PBS-BSA-EDTA for 30 min and then incubated with labeled antibody CD151-PE and anti-TF (tissue factor)-FITC for 20 min, 4° C. (see Hajj, R. et al., Stem Cells 25, 139-148 (2007)). After washing twice, the cells are taken up in PBS-EDTA and incubated with DAPI for labeling the cells whose integrity has been altered.
Cell sorting was carried out on the FACSAria sorter (BD Biosciences) equipped with 3 lasers, blue, red and violet. Dead cells, aggregates and double cells were excluded. The doubly positive population of basal cells (CD151+/FT+) and the negative population of cylindrical cells (containing ciliated cells and mucus-secreting cells) (CD151−/FT−) were selected and sorted at a rate of 5000 events/s ([…]). The purity and identity of the sorted cells were then verified by cytometry and immunocytochemistry.
Like the native airway epithelium, the model of differentiation in vitro used in these tests consists of basal cells, ciliated cells and mucus-secreting cells. In order to identify the repertoires of the miRNAs specific to each of the cellular types, the inventors used cell sorting by flow cytometry by means of specific markers (Hajj, R. et al. 2007). Using this technique, adult airway progenitor cells (corresponding a priori to basal cells) were isolated, selected and sorted (such cells appear doubly positive for tetraspanin CD151 and for the tissue factor) from the pyramidal cells (i.e. ciliated cells and mucus-secreting cells) which appear negative for these same markers. These were purified from polyps or from nasal conchae obtained from 3 separate donors.
After extracting the total RNAs, the expression profiles of the miRNAs were established by means of Agilent® commercial chips or by high-throughput sequencing (HTS). […] For the first time, the inventors thus attribute a repertoire of expression of the miRNAs specifically to separate cellular types of the airway epithelium during differentiation.

For “hsa-miR-374a: human miRNA, SEQ ID No. 42 (UUAUAAUACAACCUGAUAAGUG; expressed or natural sequence; listed as Homo sapiens)”, in data set [1], the “Modulation (ratio of the level of intensity of expression in log2 in two stages of differentiation) measured by high-throughput sequencing, D7 − D0” value is reported as −0.33 log2; the “Modulation (ratio of the level of intensity of expression in log2 in two stages of differentiation) measured by high-throughput sequencing, FC − D7” value stood at 1.74 log2; the “Modulation (ratio of the level of intensity of expression in log2 in two stages of differentiation) measured by high-throughput sequencing, WD − D0” value is listed as 2.16 log2; the “Modulation (ratio of the level of intensity of expression in log2 in two stages of differentiation) measured by high-throughput sequencing, WD − FC” value is on record as 0.74 log2. Also, in data set [1], the “Level of intensity of expression in log2 At the differentiated stage (WD) measured in HTS” value is recorded as 11.87 log2; the “Level of intensity of expression in log2 measured by high-throughput sequencing, D0” value is recorded as 0.62 log2; the “Level of intensity of expression in log2 measured by high-throughput sequencing, D7” value is listed as 0.30 log2; the “Level of intensity of expression in log2 measured by high-throughput sequencing, FC” value amounted to 2.04 log2. Besides, the “Level of intensity of expression in log2 measured by high-throughput sequencing, WD” value in data set [1] is 2.78 log2. Moreover, in data set [2], the “Modulation (ratio of the level of intensity of expression in log2 in two stages of differentiation) measured with the Agilent chips, D7 − D0” value was 1.41 log2; the “Modulation (ratio of the level of intensity of expression in log2 at two stages of differentiation), FC − D7” value is reported as −0.54 log2; the “Modulation (ratio of the level of intensity of expression in log2 in two stages of differentiation) measured with the Agilent chips, FC − D7” value is −0.54 log2; the “Modulation (ratio of the level of intensity of expression in log2 in two stages of differentiation) measured with the Agilent chips, WD − D0” value amounted to 0.79 log2. Moreover, in data set [2], the “Modulation (ratio of the level of intensity of expression in log2 at two stages of differentiation), WD − FC” value is −0.08 log2; the “Modulation (ratio of the level of intensity of expression in log2 in two stages of differentiation) measured with the Agilent chips, WD − FC” value is reported as −0.08 log2; the “Level of intensity of expression in log2 measured with the Agilent chips, D0” value is given as 7.04 log2; the “Level of intensity of expression in log2 measured with the Agilent chips, D7” value was 8.45 log2. Moreover, in data set [2], the “Level of intensity of expression in log2 measured with the Agilent chips, FC” value turned out to be 7.91 log2 and the “Level of intensity of expression in log2 measured with the Agilent chips, WD” value stood at 7.83 log2. In data set [3], the “Modulation of expression of the miRNAs in pyramidal cells (323(−)) relative to basal cells 323(+)” value was −1.04, the “Intensity of the level of expression in log2 in basal cells (323(+))” value came to 4.26 log2 and the “Intensity of the level of expression in log2 in pyramidal cells (323(−))” value is given as 3.22 log2.

“hsa-miR-100: human miRNA, SEQ ID No. 1 (AACCCGUAGAUCCGAACUUGUG; expressed or natural sequence; listed as Homo sapiens)”: in data set [1], the “Modulation (ratio of the level of intensity of expression in log2 in two stages of differentiation) measured by high-throughput sequencing, D7 − D0” value is on record as −1.05 log2; the “Modulation (ratio of the level of intensity of expression in log2 in two stages of differentiation) measured by high-throughput sequencing, FC − D7” value is given as −2.36 log2; the “Modulation (ratio of the level of intensity of expression in log2 in two stages of differentiation) measured by high-throughput sequencing, WD − D0” value is −1.72 log2; the “Modulation (ratio of the level of intensity of expression in log2 in two stages of differentiation) measured by high-throughput sequencing, WD − FC” value came to 1.69 log2. Besides, in data set [1], the “Level of intensity of expression in log2 At the differentiated stage (WD) measured in HTS” value is on record as 9.00 log2; the “Level of intensity of expression in log2 measured by high-throughput sequencing, D0” value came to 10.72 log2; the “Level of intensity of expression in log2 measured by high-throughput sequencing, D7” value was determined as 9.67 log2; the “Level of intensity of expression in log2 measured by high-throughput sequencing, FC” value is 7.32 log2. In data set [1], the “Level of intensity of expression in log2 measured by high-throughput sequencing, WD” value is 9.00 log2. Also, in data set [2], the “Modulation (ratio of the level of intensity of expression in log2 in two stages of differentiation) measured with the Agilent chips, D7 − D0” value is −0.46 log2; the “Modulation (ratio of the level of intensity of expression in log2 at two stages of differentiation), FC − D7” value is −1.25 log2; the “Modulation (ratio of the level of intensity of expression in log2 in two stages of differentiation) measured with the Agilent chips, FC − D7” value was −1.25 log2; the “Modulation (ratio of the level of intensity of expression in log2 in two stages of differentiation) measured with the Agilent chips, WD − D0” value is recorded as −1.49 log2. In data set [2], the “Modulation (ratio of the level of intensity of expression in log2 at two stages of differentiation), WD − FC” value was 0.22 log2; the “Modulation (ratio of the level of intensity of expression in log2 in two stages of differentiation) measured with the Agilent chips, WD − FC” value is reported as 0.22 log2; the “Level of intensity of expression in log2 measured with the Agilent chips, D0” value amounted to 8.00 log2; the “Level of intensity of expression in log2 measured with the Agilent chips, D7” value worked out at 7.55 log2. In data set [2], the “Level of intensity of expression in log2 measured with the Agilent chips, FC” value is on record as 6.29 log2 and the “Level of intensity of expression in log2 measured with the Agilent chips, WD” value turned out to be 6.52 log2. Moreover, in data set [3], the “Modulation of expression of the miRNAs in pyramidal cells (323(−)) relative to basal cells 323(+)” value came out at 1.62, the “Intensity of the level of expression in log2 in basal cells (323(+))” value was determined as 3.28 log2 and the “Intensity of the level of expression in log2 in pyramidal cells (323(−))” value was found to be 4.90 log2.

The record behind these values is patent publication US9023821B2, “Use of MicroRNA for treating diseases associated with a dysfunction of the cilia in multiciliated epithelial cells” (Centre National de la Recherche Scientifique, priority 2009, dated 2015).
